This passage reports IC50 and GI50 results from US20230148005A1, “MACROCYCLIC COMPOUNDS AND USES THEREOF” (THESEUS PHARMACEUTICALS, INC., priority 2020, published 2023).

One assay concerns the target EGFR^L858R/T790M/C^797S (Homo sapiens, UniProt P00533, C797S/L858R/T790M). In words: in vitro kinase assay (HTRF KinEASE-TK kit), LTC. The class given is biochemical. As to conditions: kinase inhibition. An excerpt: (§1) Assays using an in vitro kinase assay kit (HTRF KinEASE-TK kit) can be used to study the inhibitory activity of compounds described herein with respect to EGFR mutants such as EGFR^L858R, EGFR^L58R/T790M, and EGFR^L858R/T790M/C^797S.
(In general: In TR-FRET formats the signal depends on donor and acceptor labels being close together.)

The target in the next assay is EGFR^L58R/T790M (Homo sapiens, UniProt P00533, L858R/T790M). In words: in vitro kinase assay (HTRF KinEASE-TK kit), LT. The class given is biochemical. The following applies: kinase inhibition.
Description: as §1

In another assay the target is EGFR^L858R (Homo sapiens, UniProt P00533, L858R). Put plainly: in vitro kinase assay (HTRF KinEASE-TK kit), L. The class given is biochemical. As to conditions: kinase inhibition.
Description: as §1

Another assay addresses Ba/F3 EGFR-Del19/C797S (Homo sapiens, UniProt P00533, C797S, cells depend on it, form not given). In words: Ba/F3 viability assay (CellTiter-Glo), DC. The class given is cell-based. The following applies: anti-proliferation, read-out: BaF3 DC IC50. Put shortly: (§2)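 Proliferation inhibition, viability-based; mutant EGFR lines plus parental control.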
In general terms: Cellular ATP, detected with luciferase, serves as a proxy for viable cell number.

The subject of the next assay is Ba/F3 Parental. In words: Ba/F3 viability assay (CellTiter-Glo), parental. The class given is cell-based. The following applies: Mus musculus, BaF3, anti-proliferation. An outline of the steps: as §2
For assay [1], the target named is Ba/F3 EGFR-Del19/T790M/C797S (Homo sapiens, UniProt P00533, T790M/C797S, cells depend on it, form not given). Put plainly: Ba/F3 viability assay (CellTiter-Glo), DTC. As to conditions: anti-proliferation, read-out: BaF3 DTC IC50. The class given is cell-based. An outline of the steps:
as §2

A further assay concerns the target Ba/F3 EGFR-Del19/T790M (Homo sapiens, UniProt P00533, T790M, cells depend on it, form not given). In words: Ba/F3 viability assay (CellTiter-Glo), DT. The class given is cell-based. The following applies: anti-proliferation, read-out: BaF3 DT IC50. Put shortly:
as §2

Where only a bound is given, the exact number is not on record here.

EGFR^L58R/T790M, sequence (P00533 25-1210 T790M/L858R): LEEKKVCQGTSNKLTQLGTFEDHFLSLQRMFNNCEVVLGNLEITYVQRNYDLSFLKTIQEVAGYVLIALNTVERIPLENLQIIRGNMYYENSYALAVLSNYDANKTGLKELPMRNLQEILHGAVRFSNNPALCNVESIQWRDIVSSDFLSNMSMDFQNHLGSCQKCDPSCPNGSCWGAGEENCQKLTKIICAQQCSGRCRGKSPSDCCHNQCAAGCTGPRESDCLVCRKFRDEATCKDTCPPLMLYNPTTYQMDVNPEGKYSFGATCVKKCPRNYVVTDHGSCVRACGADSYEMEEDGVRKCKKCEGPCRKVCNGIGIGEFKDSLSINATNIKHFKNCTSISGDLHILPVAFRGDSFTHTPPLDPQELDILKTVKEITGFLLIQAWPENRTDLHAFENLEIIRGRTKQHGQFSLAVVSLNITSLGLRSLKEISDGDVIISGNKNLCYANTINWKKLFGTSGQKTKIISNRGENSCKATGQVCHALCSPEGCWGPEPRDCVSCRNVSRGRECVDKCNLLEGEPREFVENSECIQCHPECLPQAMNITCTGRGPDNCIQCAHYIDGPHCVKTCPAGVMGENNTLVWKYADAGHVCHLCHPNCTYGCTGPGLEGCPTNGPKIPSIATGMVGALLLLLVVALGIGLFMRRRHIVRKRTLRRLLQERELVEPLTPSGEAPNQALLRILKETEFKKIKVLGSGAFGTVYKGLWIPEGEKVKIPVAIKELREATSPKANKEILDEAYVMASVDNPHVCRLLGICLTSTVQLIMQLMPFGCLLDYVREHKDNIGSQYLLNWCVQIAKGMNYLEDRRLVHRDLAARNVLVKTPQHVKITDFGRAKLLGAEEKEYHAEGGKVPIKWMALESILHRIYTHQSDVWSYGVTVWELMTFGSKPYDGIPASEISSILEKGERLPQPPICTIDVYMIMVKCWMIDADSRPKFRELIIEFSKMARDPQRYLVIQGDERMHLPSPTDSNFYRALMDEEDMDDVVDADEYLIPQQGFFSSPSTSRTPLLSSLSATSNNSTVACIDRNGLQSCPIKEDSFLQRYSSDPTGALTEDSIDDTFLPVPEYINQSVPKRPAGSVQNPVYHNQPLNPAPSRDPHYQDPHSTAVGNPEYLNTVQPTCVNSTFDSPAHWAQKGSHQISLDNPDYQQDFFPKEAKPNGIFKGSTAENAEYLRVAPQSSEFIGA
Ba/F3 EGFR-Del19/T790M/C797S, sequence (P00533 with tags, fused parts or gaps DEL746-750/T790M/C797S, form open): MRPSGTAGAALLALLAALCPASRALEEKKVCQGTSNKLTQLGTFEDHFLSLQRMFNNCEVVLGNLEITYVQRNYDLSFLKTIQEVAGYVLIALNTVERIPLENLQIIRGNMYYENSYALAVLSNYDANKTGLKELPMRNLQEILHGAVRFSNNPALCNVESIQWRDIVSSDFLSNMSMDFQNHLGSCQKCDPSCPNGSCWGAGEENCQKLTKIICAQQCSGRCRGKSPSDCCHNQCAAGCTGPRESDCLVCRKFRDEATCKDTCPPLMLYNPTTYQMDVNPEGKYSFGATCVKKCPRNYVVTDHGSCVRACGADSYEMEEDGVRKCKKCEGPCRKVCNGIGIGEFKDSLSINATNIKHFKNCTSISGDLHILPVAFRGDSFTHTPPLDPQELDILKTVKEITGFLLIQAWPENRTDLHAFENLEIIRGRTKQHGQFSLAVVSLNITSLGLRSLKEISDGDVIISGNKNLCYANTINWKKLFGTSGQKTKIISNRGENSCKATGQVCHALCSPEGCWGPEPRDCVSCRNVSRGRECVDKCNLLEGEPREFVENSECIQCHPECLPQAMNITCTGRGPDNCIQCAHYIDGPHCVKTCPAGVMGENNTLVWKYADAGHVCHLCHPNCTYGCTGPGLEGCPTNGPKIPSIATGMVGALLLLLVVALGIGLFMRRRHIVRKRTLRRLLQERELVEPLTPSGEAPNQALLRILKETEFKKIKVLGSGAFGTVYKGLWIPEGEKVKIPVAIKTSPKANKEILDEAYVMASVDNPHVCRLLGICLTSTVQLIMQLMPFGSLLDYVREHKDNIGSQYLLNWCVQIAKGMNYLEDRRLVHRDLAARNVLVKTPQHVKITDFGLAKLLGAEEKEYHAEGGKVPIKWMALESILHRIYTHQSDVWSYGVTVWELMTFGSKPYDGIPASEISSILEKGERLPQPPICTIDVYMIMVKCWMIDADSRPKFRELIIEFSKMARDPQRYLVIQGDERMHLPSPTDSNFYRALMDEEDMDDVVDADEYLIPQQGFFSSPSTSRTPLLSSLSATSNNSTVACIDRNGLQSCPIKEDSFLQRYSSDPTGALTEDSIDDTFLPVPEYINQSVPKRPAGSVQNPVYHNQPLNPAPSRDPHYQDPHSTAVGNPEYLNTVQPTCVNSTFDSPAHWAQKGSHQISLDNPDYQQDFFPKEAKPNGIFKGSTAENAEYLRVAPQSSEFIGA
EGFR^L858R/T790M/C^797S, sequence (P00533 25-1210 T790M/C797S/L858R): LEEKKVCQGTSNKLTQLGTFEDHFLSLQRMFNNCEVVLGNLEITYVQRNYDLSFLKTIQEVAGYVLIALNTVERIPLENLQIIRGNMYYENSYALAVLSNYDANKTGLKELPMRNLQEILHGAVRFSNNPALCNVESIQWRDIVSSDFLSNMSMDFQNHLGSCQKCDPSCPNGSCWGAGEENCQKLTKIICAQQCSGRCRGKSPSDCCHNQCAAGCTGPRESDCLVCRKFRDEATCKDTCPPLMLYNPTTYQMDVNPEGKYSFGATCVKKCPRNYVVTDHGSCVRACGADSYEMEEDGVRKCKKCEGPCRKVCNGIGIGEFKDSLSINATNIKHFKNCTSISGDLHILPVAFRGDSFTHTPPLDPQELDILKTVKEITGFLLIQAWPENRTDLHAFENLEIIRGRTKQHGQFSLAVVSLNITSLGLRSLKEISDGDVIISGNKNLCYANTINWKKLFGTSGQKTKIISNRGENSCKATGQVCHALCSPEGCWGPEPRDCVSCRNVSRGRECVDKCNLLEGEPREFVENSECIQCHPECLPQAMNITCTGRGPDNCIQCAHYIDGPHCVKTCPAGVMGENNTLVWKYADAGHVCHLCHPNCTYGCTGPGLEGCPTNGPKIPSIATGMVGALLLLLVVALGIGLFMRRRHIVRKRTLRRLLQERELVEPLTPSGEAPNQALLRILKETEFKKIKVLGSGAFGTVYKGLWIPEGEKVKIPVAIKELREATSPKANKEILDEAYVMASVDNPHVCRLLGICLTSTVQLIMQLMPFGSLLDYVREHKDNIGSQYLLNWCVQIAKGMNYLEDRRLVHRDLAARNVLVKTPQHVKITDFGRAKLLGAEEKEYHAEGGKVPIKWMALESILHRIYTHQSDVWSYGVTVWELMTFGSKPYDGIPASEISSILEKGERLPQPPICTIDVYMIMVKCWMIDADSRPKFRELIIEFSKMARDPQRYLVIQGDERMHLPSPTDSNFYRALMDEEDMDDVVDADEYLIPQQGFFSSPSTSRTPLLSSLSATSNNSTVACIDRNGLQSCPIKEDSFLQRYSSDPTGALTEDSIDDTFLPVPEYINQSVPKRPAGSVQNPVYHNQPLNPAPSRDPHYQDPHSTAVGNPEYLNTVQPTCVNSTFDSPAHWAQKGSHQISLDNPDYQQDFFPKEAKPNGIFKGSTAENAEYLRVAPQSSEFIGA
Ba/F3 EGFR-Del19/C797S, sequence (P00533 with tags, fused parts or gaps DEL746-750/C797S, form open): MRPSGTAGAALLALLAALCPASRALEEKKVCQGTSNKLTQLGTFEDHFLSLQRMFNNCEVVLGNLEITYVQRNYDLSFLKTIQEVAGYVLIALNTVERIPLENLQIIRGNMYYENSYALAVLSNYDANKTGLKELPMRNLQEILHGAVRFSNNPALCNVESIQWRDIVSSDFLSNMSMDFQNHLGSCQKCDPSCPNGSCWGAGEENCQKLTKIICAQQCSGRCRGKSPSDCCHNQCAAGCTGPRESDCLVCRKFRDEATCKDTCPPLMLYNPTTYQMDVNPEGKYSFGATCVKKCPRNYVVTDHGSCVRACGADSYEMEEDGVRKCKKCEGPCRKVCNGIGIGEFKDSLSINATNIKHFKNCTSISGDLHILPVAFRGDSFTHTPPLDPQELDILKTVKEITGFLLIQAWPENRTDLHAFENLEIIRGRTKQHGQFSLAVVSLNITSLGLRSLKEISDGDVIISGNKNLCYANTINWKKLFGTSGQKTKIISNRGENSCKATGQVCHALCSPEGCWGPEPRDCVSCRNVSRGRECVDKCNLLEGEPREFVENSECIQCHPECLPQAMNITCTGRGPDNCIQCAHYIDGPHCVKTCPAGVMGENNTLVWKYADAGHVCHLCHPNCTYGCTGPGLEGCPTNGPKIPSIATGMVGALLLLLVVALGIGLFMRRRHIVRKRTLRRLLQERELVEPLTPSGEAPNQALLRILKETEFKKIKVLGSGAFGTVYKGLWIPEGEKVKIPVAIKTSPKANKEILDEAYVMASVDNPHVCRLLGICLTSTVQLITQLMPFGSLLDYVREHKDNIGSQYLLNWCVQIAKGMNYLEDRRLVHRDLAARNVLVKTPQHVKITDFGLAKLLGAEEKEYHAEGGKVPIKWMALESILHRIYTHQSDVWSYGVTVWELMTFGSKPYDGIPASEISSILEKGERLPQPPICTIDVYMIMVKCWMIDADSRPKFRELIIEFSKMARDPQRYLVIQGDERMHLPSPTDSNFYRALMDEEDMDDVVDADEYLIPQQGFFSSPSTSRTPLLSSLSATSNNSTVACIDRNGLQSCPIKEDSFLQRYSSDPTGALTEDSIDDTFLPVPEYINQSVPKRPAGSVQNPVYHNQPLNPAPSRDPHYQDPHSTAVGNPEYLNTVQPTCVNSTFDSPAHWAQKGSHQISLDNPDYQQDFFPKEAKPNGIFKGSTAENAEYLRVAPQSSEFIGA

As usually defined, the IC50 is the concentration that inhibits the measured activity by half. Take `C[C@H]1CCOc2c(cnn2C)-c2nccc(n2)Nc2cc3c(cn2)c(-c2ccc(CN4CCNCC4)n2C)nn31` [(119)]: the IC50 on EGFR^L858R/T790M/C^797S was under 0.01 µM; against EGFR^L58R/T790M, under 0.01 µM; against EGFR^L858R it was under 0.01 µM; in the assay on Ba/F3 Parental, 0.1 to 1 µM. The GI50 (on Ba/F3 EGFR-Del19/C797S; in assay [1]; at Ba/F3 EGFR-Del19/T790M) was under 0.01 µM each time.

`C[C@H]1CCOc2c(cnn2C)-c2nccc(n2)Nc2cc3c(cn2)c(-c2ccc(CN4CCOCC4)n2C)nn31` [(120)]: the IC50 is under 0.01 µM against EGFR^L858R/T790M/C^797S, under 0.01 µM on EGFR^L58R/T790M, under 0.01 µM against EGFR^L858R and 0.1 to 1 µM in the assay with Ba/F3 Parental. The GI50 at Ba/F3 EGFR-Del19/C797S was 0.01 to 0.1 µM; in assay [1], under 0.01 µM; at Ba/F3 EGFR-Del19/T790M, under 0.01 µM.

For the compound `C[C@H]1CCOc2c(cnn2C)-c2nccc(n2)Nc2cc3c(cn2)c(-c2ccc(CN4CCCCC4)n2C)nn31` [(121)], the IC50 is under 0.01 µM on EGFR^L858R/T790M/C^797S, under 0.01 µM against EGFR^L58R/T790M, under 0.01 µM against EGFR^L858R and 0.1 to 1 µM with Ba/F3 Parental. The GI50 (at Ba/F3 EGFR-Del19/C797S; in assay [1]; on Ba/F3 EGFR-Del19/T790M) was under 0.01 µM each time.

As to `CC(C)N1CCN(Cc2ccc(-c3nn4c5cc(ncc35)Nc3ccnc(n3)-c3cnn(C)c3OCC[C@@H]4C)n2C)CC1` [(122)], the IC50 is under 0.01 µM at EGFR^L858R/T790M/C^797S, under 0.01 µM against EGFR^L58R/T790M, under 0.01 µM on EGFR^L858R and 0.1 to 1 µM in the assay with Ba/F3 Parental. The GI50 (at Ba/F3 EGFR-Del19/C797S; in assay [1]; on Ba/F3 EGFR-Del19/T790M) was under 0.01 µM throughout.

As to `C[C@H]1CCOc2c(cnn2C)-c2nccc(n2)Nc2cc3c(cn2)c(-c2ccc(CN4CCN(C5CC5)CC4)n2C)nn31` [(123)], the IC50 is under 0.01 µM against EGFR^L858R/T790M/C^797S, under 0.01 µM at EGFR^L58R/T790M, under 0.01 µM against EGFR^L858R and 0.1 to 1 µM in the assay with Ba/F3 Parental. Besides, the GI50 (on Ba/F3 EGFR-Del19/C797S; in assay [1]; at Ba/F3 EGFR-Del19/T790M) was under 0.01 µM in each case.

As to `C[C@H]1CCOc2c(cnn2C)-c2nccc(n2)Nc2cc3c(cn2)c(-c2ccc(CN4CCN(C5COC5)CC4)n2C)nn31` [(124)], the IC50 at EGFR^L858R/T790M/C^797S is under 0.01 µM; against EGFR^L58R/T790M it was under 0.01 µM; against EGFR^L858R, under 0.01 µM; in the assay on Ba/F3 Parental, 0.1 to 1 µM. Further, the GI50 (on Ba/F3 EGFR-Del19/C797S; in assay [1]; at Ba/F3 EGFR-Del19/T790M) was under 0.01 µM throughout.

For `CCn1c(CN2CCN(C3CC3)CC2)ccc1-c1nn2c3cc(ncc13)Nc1ccnc(n1)-c1cnn(C)c1OCC[C@@H]2C` [(125)], the half-maximal inhibitory concentration (IC50) is under 0.01 µM on EGFR^L858R/T790M/C^797S, under 0.01 µM on EGFR^L58R/T790M, 0.01 to 0.1 µM on EGFR^L858R and 0.1 to 1 µM with Ba/F3 Parental. Besides, the GI50 was 0.01 to 0.1 µM at Ba/F3 EGFR-Del19/C797S, under 0.01 µM in assay [1] and under 0.01 µM at Ba/F3 EGFR-Del19/T790M.

As for `CCn1cc(-c2nn3c4cc(ncc24)Nc2ccnc(n2)-c2cnn(C)c2OCC[C@@H]3C)cc1CN1CCN(C2CC2)CC1` [(126)], the half-maximal inhibitory concentration (IC50) was under 0.01 µM at EGFR^L858R/T790M/C^797S, under 0.01 µM at EGFR^L58R/T790M, under 0.01 µM at EGFR^L858R and 0.1 to 1 µM in the assay with Ba/F3 Parental. Moreover, the GI50 (on Ba/F3 EGFR-Del19/C797S; in assay [1]; on Ba/F3 EGFR-Del19/T790M) was under 0.01 µM in each case.

Regarding `C[C@H]1CCOc2c(cnn2C)-c2nccc(n2)Nc2cc3c(cn2)c(-c2ccc(CN(C)C)n2C)nn31` [(127)], the IC50 was under 0.01 µM on EGFR^L858R/T790M/C^797S, under 0.01 µM against EGFR^L58R/T790M, under 0.01 µM against EGFR^L858R and 0.1 to 1 µM with Ba/F3 Parental. In addition, the GI50 (at Ba/F3 EGFR-Del19/C797S; in assay [1]; on Ba/F3 EGFR-Del19/T790M) was under 0.01 µM each time.

`CCN1CCC(Oc2cc(F)cc(-c3nn4c5cc(ncc35)Nc3ccnc(n3)-c3cnn(C)c3OCC[C@@H]4C)c2)CC1` [(128)]: the IC50 against EGFR^L858R/T790M/C^797S was under 0.01 µM; against EGFR^L58R/T790M it was under 0.01 µM; at EGFR^L858R, 0.01 to 0.1 µM; in the assay with Ba/F3 Parental, 0.1 to 1 µM. Moreover, the GI50 (on Ba/F3 EGFR-Del19/C797S; in assay [1]; at Ba/F3 EGFR-Del19/T790M) was 0.01 to 0.1 µM each time.

For the compound `C[C@H]1CCOc2c(cnn2C)-c2nccc(n2)Nc2cc3c(cn2)c(-c2cc(F)cc(OCCN(C)C)c2)nn31` [(129)], the 50% inhibitory concentration (IC50) against EGFR^L858R/T790M/C^797S is under 0.01 µM; on EGFR^L58R/T790M it was under 0.01 µM; against EGFR^L858R, 0.01 to 0.1 µM; in the assay on Ba/F3 Parental, 0.1 to 1 µM. Moreover, the GI50 (at Ba/F3 EGFR-Del19/C797S; in assay [1]; at Ba/F3 EGFR-Del19/T790M) was 0.01 to 0.1 µM in each case.

Regarding `C[C@H]1CCOc2c(cnn2C)-c2nccc(n2)Nc2cc3c(cn2)c(-c2cc(OCCN(C)C)ccc2F)nn31` [(130)], the IC50 against EGFR^L858R/T790M/C^797S was under 0.01 µM; at EGFR^L58R/T790M, under 0.01 µM; against EGFR^L858R, 0.01 to 0.1 µM; with Ba/F3 Parental it was at least 1 µM. For the same compound, the GI50 (at Ba/F3 EGFR-Del19/C797S; in assay [1]; at Ba/F3 EGFR-Del19/T790M) was 0.01 to 0.1 µM in each case.

As to `C[C@H]1CCOc2c(cnn2C)-c2nccc(n2)Nc2cc3c(cn2)c(-c2ccc(F)c(OCCN(C)C)c2)nn31` [(131)], the IC50 against EGFR^L858R/T790M/C^797S was under 0.01 µM; at EGFR^L58R/T790M, under 0.01 µM; against EGFR^L858R it was under 0.01 µM; with Ba/F3 Parental, 0.1 to 1 µM. Also, the GI50 (on Ba/F3 EGFR-Del19/C797S; in assay [1]; on Ba/F3 EGFR-Del19/T790M) was under 0.01 µM each time.

`CCN(CC)CCN(C)c1cc(F)cc(-c2nn3c4cc(ncc24)Nc2ccnc(n2)-c2cnn(C)c2OCC[C@@H]3C)c1` [(132)]: the half-inhibitory concentration (IC50) on EGFR^L858R/T790M/C^797S was under 0.01 µM; on EGFR^L58R/T790M, under 0.01 µM; against EGFR^L858R, 0.01 to 0.1 µM; with Ba/F3 Parental, 0.1 to 1 µM. Moreover, the GI50 (at Ba/F3 EGFR-Del19/C797S; in assay [1]; at Ba/F3 EGFR-Del19/T790M) was 0.01 to 0.1 µM in each case.

With `CCN(CC)CCOc1cc(F)cc(-c2nn3c4cc(ncc24)Nc2ccnc(n2)-c2cnn(C)c2OCC[C@@H]3C)c1` [(133)], the IC50 is under 0.01 µM at EGFR^L858R/T790M/C^797S, under 0.01 µM against EGFR^L58R/T790M, 0.01 to 0.1 µM against EGFR^L858R and 0.1 to 1 µM with Ba/F3 Parental. Moreover, the GI50 (at Ba/F3 EGFR-Del19/C797S; in assay [1]; at Ba/F3 EGFR-Del19/T790M) was 0.01 to 0.1 µM throughout.

In the case of `Cc1cc(OCCN(C)C)cc(-c2nn3c4cc(ncc24)Nc2ccnc(n2)-c2cnn(C)c2OCC[C@@H]3C)c1` [(134)], the IC50 against EGFR^L858R/T790M/C^797S is under 0.01 µM; against EGFR^L58R/T790M it was under 0.01 µM; at EGFR^L858R, under 0.01 µM; with Ba/F3 Parental, 0.1 to 1 µM. Moreover, the GI50 (on Ba/F3 EGFR-Del19/C797S; in assay [1]; on Ba/F3 EGFR-Del19/T790M) was 0.01 to 0.1 µM in each case.

As to `CCCN1CCN(Cc2ccc(-c3nn4c5cc(ncc35)Nc3ccnc(n3)-c3cnn(C)c3OCC[C@@H]4C)n2C)CC1` [(135)], the half-maximal inhibitory concentration (IC50) on EGFR^L858R/T790M/C^797S was under 0.01 µM; at EGFR^L58R/T790M, under 0.01 µM; at EGFR^L858R it was under 0.01 µM; with Ba/F3 Parental, 0.1 to 1 µM. Besides, the GI50 (at Ba/F3 EGFR-Del19/C797S; in assay [1]; at Ba/F3 EGFR-Del19/T790M) was under 0.01 µM in each case.

With `COCCN(C)Cc1ccc(-c2nn3c4cc(ncc24)Nc2ccnc(n2)-c2cnn(C)c2OCC[C@@H]3C)n1C` [(136)], the concentration for half-maximal inhibition (IC50) on EGFR^L858R/T790M/C^797S is under 0.01 µM; against EGFR^L58R/T790M, under 0.01 µM; on EGFR^L858R, under 0.01 µM; with Ba/F3 Parental, 0.1 to 1 µM. The GI50 (on Ba/F3 EGFR-Del19/C797S; in assay [1]; on Ba/F3 EGFR-Del19/T790M) was under 0.01 µM in each case.

Take `CCN(CC)Cc1ccc(-c2nn3c4cc(ncc24)Nc2ccnc(n2)-c2cnn(C)c2OCC[C@@H]3C)n1C` [(137)]: the concentration for half-maximal inhibition (IC50) is under 0.01 µM at EGFR^L858R/T790M/C^797S, under 0.01 µM against EGFR^L58R/T790M, under 0.01 µM against EGFR^L858R and 0.1 to 1 µM with Ba/F3 Parental. In addition, the GI50 (on Ba/F3 EGFR-Del19/C797S; in assay [1]; at Ba/F3 EGFR-Del19/T790M) was under 0.01 µM each time.
